Results on three molecules are retold here after patent US10308631B2, “Selective anti-cancer compounds” (NATIONAL UNIVERSITY OF SINGAPORE, priority 2015, dated 2019).

As usually defined, the fold induction is the signal under treatment as a multiple of the control signal.

Test [1] has as its system mitotic marker phospho-histone H3 at serine 10 (pH3 (Ser10)) in transformed BJ cells. The test can be described thus: Immunoblot analysis of mitotic marker pH3 (Ser10), derivatives of Compound 1. The test is classed as cell-based. The settings on record: Homo sapiens, band intensities pH3(Ser10)/β-actin vs DMSO control, 24 h. The procedure: (§1) FIG. 4 compares the ability of Compound 1 (a131), and various derivatives thereof (referred to using their code numbers for brevity; the designated chemical compound for each code number is provided in the chemical examples section below), to inhibit autophagy and/or mitosis. BJ transformed cells were treated with 5 μM of various Compounds as shown, for 24 h. Cells were harvested and total lysates were analysed by detecting the mitotic marker phospho-histone H3 at serine 10 (pH3 (Ser10)) and the autophagosome marker LC3. Antibodies raised against β-actin were used as an internal loading control.
(§2) The ability of Compound 1 to inhibit lysosome function was examined using immunoblotting. HeLa cervical cancer cells were cultured in Dulbecco's modified Eagle's medium (DMEM) supplemented with 10% Fetal Bovine Serum (FBS, Thermo Scientific). The HeLa cells were treated with different concentrations of Compound 1 (0.625, 1.25, 2.5, 5 and 10 μM, dimethyl sulfoxide (DMSO, Kanto Kagaku)), chloroquine (CQ) (1.25, 2.5, 10, 50 and 100 μM, DMSO) or DMSO for 6 h. Then, the treated cells were harvested and lysed in 1% triton lysis buffer [25 mM Tris HCl (pH8.0), 150 mM NaCl, 1% triton-X100, 1 mM dithiothreitol (DTT), protease inhibitor mix (Complete Mini, Roche) and phosphatase inhibitor (PhosphoStop, Roche)]. The proteins in total lysates were boiled with sample buffer (60 mM Tris-HCl (pH 6.8), 25% glycerol, 2% SDS, 14.4 mM 2-mercaptoethanol, 0.1% bromophenol blue) and resolved by 14% tris-glycine sodium dodecyl sulfate polyacrylamide gel electrophoresis (SDS-PAGE) and subjected to immunoblot analysis.
(§3) Defects in lysosome function and inhibition of autophagy can be measured by accumulation of LC3-phosphatidylethanolamine conjugated non-soluble form (LC3-II), which are converted from soluble LC3-I. Thus, antibodies raised against LC3 (Cell Signaling, Cat#4108) were used to determine lysosomal function and integrity. Antibodies raised against phosphorylated histone H3 at serine 10 residue (pH3) (Cell signaling, Cat#3377) were used as the marker for mitotic dysfunction and arrest. Antibodies raised against β-actin (Millipore, Cat#MAB1501) were used as an internal loading control. The inhibitory ability of Compound 1 was also quantitatively compared to CQ.
(§4) Derivatives of Compound 1 were tested to see if they had similar dual activity, or presented only one of the activities of Compound 1. The protocol for immunoblot analysis described in Biology Example 1 was applied to the additional indicated compounds.
(§5) Activities of compounds were determined by two independent experiments. First, Compounds were classified according to the intensity of increase in each of the mitotic marker phospho-histone H3 at serine 10 (pH3 (Ser 10)) and the autophagosome marker LC3, respectively, at 1.25 μM, when compared with 1.25 μM Compound 1 (a131).
(§6) Compounds classified “++” on either “mitosis” or “inhibits lysosome” show similar increase in each of the mitotic marker phospho-histone H3 at serine 10 (pH3 (Ser10)) and the autophagosome marker LC3, respectively, at 2.5 μM, when compared with 1.25 μM Compound 1 (a131); and compounds classified “+” on either “mitosis” or “inhibits lysosome” show similar increase in each of the mitotic marker phospho-histone H3 at serine 10 (pH3 (Ser10)) and the autophagosome marker LC3, respectively, at a concentration range of 5-10 μM, when compared with 1.25 μM Compound 1 (a131).
Compounds classified “+/−” on either “mitosis” or “inhibits lysosome” show less increase in each of the mitotic marker phospho-histone H3 at serine 10 (pH3 (Ser10)) and the autophagosome marker LC3, respectively, at a concentration range of 5-10 μM, when compared with 1.25 μM Compound 1 (a131).
Next, the ability of Compound 1 and its derivatives to induce mitotic arrest in transformed BJ cells was quantified as the fold induction of band intensities [pH3(Ser10)/β-actin] in comparison with DMSO control. […]

Test [2] has as its system autophagosome marker LC3 (LC3 II/LC3 I) in transformed BJ cells. Description: Immunoblot analysis of autophagosome marker LC3 (lysosome function), derivatives of Compound 1. The test is classed as cell-based. The settings on record: Homo sapiens, band intensities LC3 II/LC3 I vs DMSO control, 24 h. The procedure: as §1, §2, §3, §4, §5, §6
Compounds classified “+/−” on either “mitosis” or “inhibits lysosome” show less increase in each of the mitotic marker phospho-histone H3 at serine 10 (pH3 (Ser10)) and the autophagosome marker LC3, respectively, at a concentration range of 5-10 μM, when compared with 1.25 μM Compound 1 (a131). […]
On the technique in general: A western blot detects proteins with antibodies after separation by electrophoresis.

In test [3] the test system is pH3 (Ser10) and LC3 in BJ transformed cells. The test can be described thus: Immunoblot classification of compounds by pH3 and LC3 (FIG. 4). The test is classed as cell-based, human. The conditions noted are these: 5 μM, 24 h. As to the method: as §1, §4
Test [4] concerns oncogene-transformed BJ cells. Description: PI staining and FACS analysis, sub-G1 cell death. The settings on record: for cell death (population of cells in sub-G1) / cell death: 48 h; for cell death (population of cells in sub-G1): Compound 1 2.5 μM, other Group 1 and Group 2 compounds 10 μM, Compound 3 5 μM (FIG. 5A). The test is classed as cell-based, human. The procedure:
FIG. 5A is a histogram showing the ability of Compound 1 (a131) and its derivatives Compound 2 (a156), Compound 16 (b5), Compound 17 (b9), all in Group 1; Compound 29 (a219), Compound 13 (b12), Compound 11 (b15), Compound 12 (b16), Compound 25 (a166), all in Group 2; and Compound 3 (a159) from Group 3, to induce cancer selective cell death. Isogenic non-transformed (normal) and oncogene-transformed BJ cells were treated with each compound for 48 h and cells were stained with propidium iodide (PI) and subjected to FACS analysis. The percentage of cells in sub-G1 phase is indicative of the extent of cell death. […] In contrast, the ability of the compounds in Groups 2 and 3 to induce cancer selective cell death was markedly compromised (or reduced).
The Compounds 25 (a166) and 3 (a159) were selected from Group 2 and Group 3, respectively. Isogenic non-transformed normal and oncogene-transformed BJ cells were treated with or without 0.3 μM or 0.6 μM Compound 3 (a159) alone or together with 1.25 μM Compound 25 (a166) for 48 h. Cells were stained with propidium iodide (PI) and subjected to FACS analysis.
Isogenic non-transformed and oncogene-transformed human fibroblast BJ cell lines were cultured in DMEM supplemented with 10% FBS. The cells were treated with Compound 1 (2.5 μM, DMSO). 48 h after treatment, the cells were fixed with ethanol at −30° C. overnight and stained with 20 μg/mL propidium iodide (PI) and 10 μg/mL RNase A for 30 min. These cells were then subjected to flow cytometry (FACS) analysis using MACSQuant (Miltenyi Biotec) to count the percentage of apoptotic cells in sub-G1 peak.
The above procedure was repeated for Group 1 Compounds 2, 16 and 17, Group 2 Compounds 29, 13, 11, 12 and 25 at a concentration of 10 μM, and Group 3 Compound 3 at a concentration of 5 μM.
Isogenic non-transformed normal and oncogene-transformed BJ cells were cultured as in Biology Example 3. The cells were treated with a combination of Compound 3 (Group 3, at a concentration of 0.3 μM or 0.6 μM), and Compound 25 (Group 2, at a concentration of 1.25 μM) for 48 hours. Controls using DMSO, Compound 3 and Compound 25 alone (at the concentrations mentioned above) were also performed.
(In flow cytometry, cells or beads pass a laser one at a time.)

`N#C/C(=C\c1cccc2cnccc12)c1c[nH]c2ccccc12` [Compound 1, (Z)-2-(1H-indol-3-yl)-3-(isoquinolin-5-yl)acrylonitrile]: the fold induction at 5 µM is 7.3 in test [1] and 5 in test [2]. For the same molecule, the “Inhibition of lysosome function and/or mitosis (FIG. 4)” value (shortened to “Inhibition”) in test [3] was “exhibit the dual properties of inhibiting both lysosome function and mitosis”. Further, the “population of cells in sub-G1” value in test [4] (2.5 and 5 μM, 24 h (FIG. 9A panels g-i)) is “massive increase in population of oncogene-transformed BJ cells in sub-G1”. In addition, in test [4], the “cell death (population of cells in sub-G1)” value is “selectively induced cell death in oncogene-transformed BJ cells while sparing normal counterparts”.

`N#C/C(=C\c1cccc2ncccc12)c1c[nH]c2ccccc12` [Compound 3, (Z)-2-(1H-indol-3-yl)-3-(quinolin-5-yl)acrylonitrile]: the fold induction at 5 µM was 10.5 in test [1] and 0.7 in test [2]. For the same molecule, the “Inhibition” value in test [3] was “inhibit mitosis only”. In addition, in test [4], the “cell death (population of cells in sub-G1)” value was “significantly induced cell death”. The cell death entry is listed as “negligible effect” in test [4] (Compound 3 alone at 0.3 μM) and −15% in test [4] (Compound 3 alone at 0.6 μM).

In the case of `CN1CCN(CC(=O)n2cc(/C(C#N)=C/c3cccc4cnccc34)c3ccccc32)CC1` [Compound 16, (Z)-3-(isoquinolin-5-yl)-2-(1-(2-(4-methylpiperazin-1-yl)acetyl)-1H-indol-3-yl)acrylonitrile], the fold induction at 5 µM in test [1] is 11.8; in test [2], 5. In addition, in test [3], the “Inhibition” value was “exhibit the dual properties of inhibiting both lysosome function and mitosis”. The “cell death (population of cells in sub-G1)” value in test [4] is “selectively induced cell death in oncogene-transformed BJ cells while sparing normal counterparts”.
